Data as given in patent US20220193013A1, “Pharmaceutical Composition for Treatment or Prevention of Multiple Inflammatory Disorders” (priority 2020, published 2022).

How the values were obtained:
healthy mouse = experiment: cytokine profile and routes of administration in healthy mouse; assay type: in vivo; conditions: for VEGF (versus controls): p=0.001
Protocol: This example provides results of a study to evaluate the effect of denatonium acetate on a healthy mouse as measured by cytokine profile and routes of administration of DA. The study groups were: (1) Vehicle group, N=12, treated with distilled water, gavage, BID; (2) DA oral low dose group, N=12, treated with DA at a dose of 23.1 mg/kg (salt weight), gavage, BID; (3) DA oral high dose group, N=12, treated with DA at a dose of 92.4 mg/kg (salt weight), gavage, BID; (4) DA IV low dose group, N=12, treated with DA at a dose of 1 mg/kg (salt weight), iv bolus, QD; (5) DA IV high dose group, N=12, treated with ARD-101 at a dose of 3 mg/kg (salt weight), iv bolus, QD.

[1] = system: DSS-induced colitis in mice; experiment: dextran sulfate sodium (DSS)-induced colitis in mice; assay type: in vivo, mouse
Source text: This example provides the results of an in vivo study in a dextran sulfate sodium (DSS)-induced colitis in mice model. Inflammatory bowel diseases (IBD), mainly comprising ulcerative colitis and Crohn's Disease, are complex and multifactorial diseases with unknown etiology. To study human IBD mechanistically, a number of murine models of colitis have been developed. These models are tools to decipher underlying mechanisms of IBD pathogenesis as well as to evaluate potential therapeutics. […] Moreover, many existing IBD-approved drugs have been studied in this model to allow a comparison of new potential drug compounds as compared with existing drugs with approved IBD indications. […] mice were divided into 5 groups of 3-10 mice, provided with standard mouse chow diet ad libitum, and housed up to 5 per cage. Dexamethasone 21-phosphate disodium salt (DMS; Alfa Aesar Catalog #J64083-1G, Lot R02F035) (was used as a positive control. Hemoccult kits were obtained from Beckman (Hemoccult SENSA kit). Dextran sodium sulfate (DSS) reagent grade (MPI Catalog #160110, Lot #6046H, MW 36,000-50,000, CAS 9011-18-1) was supplemented in the water of certain groups to induced IBD-like symptoms. On day −3 treatment began prior to DSS delivery. On day 1 all mice were pre-weighed and given fresh 4-5% DSS in water every day for 5 days and water is then given for the remainder of the study to elicit disease. An additional control group was given water (no DSS) for the duration of the study (10 days). Body weight was measured daily, fecal blood status (hemoccult) was measured 3X per week, fecal consistency 3× per week and general health determined daily. Mice were sacrificed on day 10 and serum obtained for cytokine analysis and colon length and weight determined. There were two control groups of water only and DSS without drug treatment. There were two treatment groups at 69.3 mg/kg (n=10) bid and 23.1 mg/kg bid (n=10).

[2] = system: inflammatory biomarkers in tested animals; experiment: biomarkers compared across many studies (Table 2); assay type: in vivo; conditions: PO 92.4 mg/kg DA BID
Protocol: The many examples provided herein show the effect of the denatonium salts on various in vivo and in vitro models of various disease indications. In addition, blood samples were taken from the tested (and control) animals and various biomarkers were measured and compared. FIGS. 70A-C show graphs comparing biomarkers across many studies. […] It should be noted that clusters of multiple biomarkers predict effectiveness for each disease indication and that grouping is shown in FIG. 71.

[3] = high-dose of DA, no significant difference observed

## CC(=O)[O-].CC[N+](CC)(CC(=O)Nc1c(C)cccc1C)Cc1ccccc1 [DA, denatonium acetate]
Healthy mouse; either iv DA dose (1 or 3 mg/kg iv bolus QD)
  biomarker (cytokine) effects: no biomarker (cytokine) effects
Healthy mouse; higher dose oral DA 92.4 mg/kg BID
  VEGF (versus controls): significant decreases
Healthy mouse; higher dose oral DA 92.4 mg/kg BID, p=0.003
  IL-9 (versus controls): significant decreases
Healthy mouse; higher dose oral DA 92.4 mg/kg BID, p=0.03
  GM-CSF (versus controls): significant decreases
Healthy mouse; higher dose oral DA 92.4 mg/kg BID, p=0.05
  KC (versus controls): significant decreases
Healthy mouse; iv administration only
  side effects: toxic side effects
Healthy mouse; lower dose oral DA 23.1 mg/kg BID
  VEGF (versus controls): significant decreases
Healthy mouse; lower dose oral DA 23.1 mg/kg BID, p=0.003
  G-CSF (versus controls): significant decreases
Healthy mouse; lower dose oral DA 23.1 mg/kg BID, p=0.005
  MCP-1 (versus controls): significant decreases
Healthy mouse; lower dose oral DA 23.1 mg/kg BID, p=0.015
  MIP-2 (versus controls): significant decreases
Healthy mouse; lower dose oral DA 23.1 mg/kg BID, p=0.03
  IL-13 (versus controls): significant decreases
Healthy mouse; lower dose oral DA 23.1 mg/kg BID, p=0.04
  IL-1α (versus controls): significant decreases
[1]; 69.3 mg/kg DA, BID, vs vehicle
  body weight at day 10: significant effect against DSS-induced body weight loss
[1]; DA 23.1 and 69.3 mg/kg bid
  combined fecal score during the study period: significant main effect
  fecal consistency score during the study period: significant main effect
  fecal occult blood scores during the study period: significant main effect
[1]; DA 23.1 and 69.3 mg/kg bid, P=0.0052
  body weight changes during the study period: significant main effect
[1]; [3]
  colon length at day 10: could counteract DSS-induced decrease
  colon weight at day 10: could counteract DSS-induced decrease
[1]; high-dose of DA, no significant effect observed
  spleen weight at day 10: trend to counteract DSS-induced spleen weight loss
[2]
  Eotaxin, Decreased Percentage Compared to Vehicle: −18.6%
  G-CSF, Decreased Percentage Compared to Vehicle: −37.5%
  GM-CSF, Decreased Percentage Compared to Vehicle: −2.3%
  IFN-γ, Decreased Percentage Compared to Vehicle: −37.3%
  IL-1α, Decreased Percentage Compared to Vehicle: −18.2%
  IL-1β, Decreased Percentage Compared to Vehicle: −12.0%
  IL-3, Decreased Percentage Compared to Vehicle: −74.5%
  IL-5, Decreased Percentage Compared to Vehicle: −29.1%
  IL-6, Decreased Percentage Compared to Vehicle: −34.2%
  IL-10, Decreased Percentage Compared to Vehicle: −92.5%
  IL-12 (p70), Decreased Percentage Compared to Vehicle: −28.0%
  IL-17, Decreased Percentage Compared to Vehicle: −21.2%
  KC, Decreased Percentage Compared to Vehicle: −21.6%
  LIX, Decreased Percentage Compared to Vehicle: −7.3%
  MCP-1, Decreased Percentage Compared to Vehicle: −24.2%
  MIG, Decreased Percentage Compared to Vehicle: −13.2%
  MIP-1α, Decreased Percentage Compared to Vehicle: −3.4%
  MIP-1β, Decreased Percentage Compared to Vehicle: −10.2%
  MIP-2, Decreased Percentage Compared to Vehicle: −76.3%
  RANTES, Decreased Percentage Compared to Vehicle: −20.6%
